We go through 1 molecule from patent publication US20140088187A1, “ANDROGEN RECEPTOR INHIBITORS AND METHODS OF USE THEREOF” (BETH ISRAEL DEACONESS MEDICAL CENTER, priority 2010, published 2014).

The test concerns the target T1, AR WT (Homo sapiens, UniProt P10275).
T1 construct: The AR WT construct expresses full-length human AR under cmv promoter control; expressed in transfected cells; host or cells: COS7
T1 sequence (P10275 1-920): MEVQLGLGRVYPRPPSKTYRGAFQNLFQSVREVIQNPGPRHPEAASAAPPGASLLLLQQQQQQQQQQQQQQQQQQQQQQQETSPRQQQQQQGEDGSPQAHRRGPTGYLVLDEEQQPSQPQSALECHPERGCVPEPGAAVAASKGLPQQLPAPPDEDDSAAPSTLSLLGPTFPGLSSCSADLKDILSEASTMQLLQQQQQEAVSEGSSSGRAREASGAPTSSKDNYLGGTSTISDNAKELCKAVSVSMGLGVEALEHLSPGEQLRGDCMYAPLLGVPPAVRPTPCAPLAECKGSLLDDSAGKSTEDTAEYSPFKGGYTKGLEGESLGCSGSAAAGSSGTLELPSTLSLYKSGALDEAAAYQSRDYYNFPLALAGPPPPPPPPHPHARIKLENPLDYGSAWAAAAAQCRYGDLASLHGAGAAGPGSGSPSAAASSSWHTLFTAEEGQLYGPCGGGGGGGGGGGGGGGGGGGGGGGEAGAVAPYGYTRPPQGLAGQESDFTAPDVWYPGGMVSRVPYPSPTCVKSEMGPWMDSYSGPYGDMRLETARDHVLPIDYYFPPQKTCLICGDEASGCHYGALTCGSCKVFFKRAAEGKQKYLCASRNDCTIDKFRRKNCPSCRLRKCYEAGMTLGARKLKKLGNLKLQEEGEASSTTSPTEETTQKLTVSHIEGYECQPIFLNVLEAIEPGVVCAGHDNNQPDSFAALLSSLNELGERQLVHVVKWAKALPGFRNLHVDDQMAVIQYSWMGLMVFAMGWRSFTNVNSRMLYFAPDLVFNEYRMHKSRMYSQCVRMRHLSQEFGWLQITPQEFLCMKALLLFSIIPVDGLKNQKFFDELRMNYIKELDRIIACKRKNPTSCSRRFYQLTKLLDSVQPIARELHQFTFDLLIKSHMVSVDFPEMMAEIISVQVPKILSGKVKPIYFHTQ
Kind of test: Mifepristone-stimulated VP16-NCoRc recruitment reporter assay in COS7 cells, AR WT. The format is cell-based. The source says:
The ERα antagonist fulvestrant (Faslodex) represents a novel class of estrogen receptor downregulators that appear to mediate ERα degradation by specifically repositioning helix 12. To assess the role of helix 12 in chemotype A-mediated AR degradation, we first determined if helix 12 is required for A89 binding. As this helix is required for AR agonist activity, we could not directly measure competitive antagonist activity on a truncated AR lacking helix 12.
Background: In a reporter assay the amount or activity of a reporter protein is the signal.

In the case of `CCOc1cc(F)c(S(=O)(=O)NCc2ccc3c(c2)OCO3)cc1F` [Compound A89, N-(1,3-benzodioxol-5-ylmethyl)-4-ethoxy-2,5-difluorobenzenesulfonamide], for the setting “A89 50 μM with Mif 100 nM”, the “mifepristone-mediated VP16-NCoRc recruitment” value is given as “suppressed”. For the same molecule, the “VP16-NCoRc recruitment (interaction with AR)” value (Mif 100 nM, A89 50 μM, 24 hours) is listed as “did not stimulate”.
